According to patent publication US11654136B2, “Phosphoinositide 3-kinase inhibitor with a zinc binding moiety” (Curis, Inc., priority 2011, dated 2023):

Experiments:
[1] = test system: PI3K-AKT-mTOR pathway, RAF-MEK-ERK pathways, RTK protein levels, p53 and p21; assay: Pharmacodynamics, Western blots of Daudi tumor tissue extracts; assay type: in vivo, Scid mice; settings: single dose 25, 50 and 100 mg/kg; Daudi tumors
Method: Protein was extracted from tumor tissues using a Tissuelyser (Qiagen, Valencia, Calif.) according to the manufacturer's instructions. 30 ug of protein was routinely used for WB analysis as described above. Cell lysates were resolved on NuPAGE Novex 4-12% Bis-Tris gels (Invitrogen) and transferred to nitrocellulose membranes (Bio-Rad Laboratories, Hercules, Calif.). The blots were probed with various primary antibodies overnight at 4° C. GAPDH (glyceraldehyde 3-phosphate dehydrogenase, 1:30,000, Abcam, Cambridge, Mass.) was used as an internal control for each assay. Membranes were then incubated with infrared labeled secondary antibodies (1:10000) conjugated-IR Dye-800 (Rockland Immunochemicals, Inc. Gilbertsville, Pa.) or conjugated-Alexa 680 (Invitrogen). Membranes were imaged with the Odyssey Infrared Imaging System (Li-Cor Biotechnology, Lincoln, Nebr.).

[2] = test system: OPM2 (multiple myeloma tumor cell line) xenograft tumors; assay: OPM2 xenograft tumor model; assay type: in vivo, nude mice; settings: oral 50 mg/kg twice a day, five days per week
Method: SU-DHL4 (diffuse large B-cell lymphoma cell line), H2122 (human NSCLC cell line), Daudi (non-Hodgkin's lymphoma cell line), and OPM2 (multiple myeloma tumor cell line) cells were implanted into either nude or Scid (severe […] immune-deficient) mice. […]. […] The control groups were treated with vehicle using the same dosing schedule as the corresponding active group.
In another study, the Daudi tumor group was dosed at 50 mg/Kg twice a day for five days per week. […] The SU-DHL4 tumor group was dosed at 100 mg/Kg orally or 50 mg/Kg intravenously.
Tumors were measured during the study period with an electronic caliper, and body weights were measured twice a week. The following formula was used to calculate the tumor volume: […] Percentage of tumor volume change was used to describe compound activity over the treatment period.

[3] = test system: p-STAT3 (Y-705) and p-Src; assay: Western blot in RPMI-8226 myeloma cells; assay type: cell-based; settings: 1 μM, 16 h
[4] = test system: Daudi human Burkitt's lymphoma xenograft; assay: Comparison with CAL-101 in the Daudi xenograft tumor model; assay type: in vivo, SCID beige mice; settings: 100 mg/kg Qd (Mon-Fri), PO; 18 days
Method: Female SCID beige mice (CD-1 Beige SCID) at 6-8 weeks of age were housed in ventilated micro-isolator cages in a controlled climate, fed with sterile high-fat diet (Problab-RMH 2000 ad libitum and provided with sterilized water. All housing and supplies for SCID beige mice are disposable, and purchased irradiated from Innovive prior to use. Mice were inspected daily including weekends/holidays by trained animal facility personnel and investigators. All animal procedures were performed under sterile conditions in a biosafety cabinet (for injections) or laminar flow hood (for animal husbandry and non-invasive procedures).
Daudi human Burkitt's lymphoma cells were originally obtained from a human Burkitt's lymphoma patient. […] The implanted mice were monitored for general health and tumor development daily.
Tumors were detectable about two weeks following implantation. Tumor size was measured with a caliper. […]
During each animal study, tumors were measured with calipers, tumor size determined using the above mentioned formula, and tumor size changes in percentage calculated. Mouse body weights were measured with a scale twice per week. […] T/C values were calculated using the following formula: % T/C=100×ΔT/ΔC if ΔT>0. […]
Tumor sizes and body weights were measured again on the last day of the study.

COc1ccc(-c2nc(N3CCOCC3)c3sc(CN(C)c4ncc(C(=O)NO)cn4)cc3n2)cn1 [Compound 1, N-hydroxy-2-(((2-(6-methoxypyridin-3-yl)-4-morpholinothieno[3,2-d]pyrimidin-6-yl)methyl)(methyl)amino)pyrimidine-5-carboxamide]
Pharmacodynamic markers in tumor tissue (Western blots) [1]: inhibits the PI3K-AKT-mTOR pathway, suppresses the RAF-MEK-ERK pathways, downregulates RTK protein levels and up-regulates tumor suppressor p53 and p21 levels | Tumor growth [2]: efficacious | p-STAT3 (Y-705) and p-Src [3]: inhibited p-STAT3 (Y-705) and p-Src | Tumor growth [4]: significantly reduced tumor growth compared to the CAL-101 and control groups
